Tests used:
Assay in all cases: relative viability (nuclei count vs DMSO), 5 days (fraction); higher = more cells survive
[1] = compound: C1COCCN1CC2=CC(=O)C(=CO2)OCCCCCSC3=C4C=CC(=CC4=NC=C3)C(F)(F)F [EHT 1864]
Method in brief: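 Cells of lung cancer lines were placed in 1536-well plates and kept overnight at 37 °C. Pinning then delivered five library-drug doses (not always all listed), spaced by √10, onto plates anchored with vehicle, and the cells were left 5 days without changing medium. One step fixed, permeabilised and stained them with Hoechst, and MetaXpress counted nuclei in 4× images. Viability, as a median over plates, is treated-well nuclei divided by vehicle-well nuclei, with acceptance only at control CV below 25% and at least one doubling.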

[2] = compound: C1COCCN1CC2=CC(=O)C(=CO2)OCCCCCSC3=C4C=CC(=CC4=NC=C3)C(F)(F)F [EHT 1864] + CC1(C)CCC(c2ccc(Cl)cc2)=C(CN2CCN(c3ccc(C(=O)NS(=O)(=O)c4ccc(N[C@H](CCN5CCOCC5)CSc5ccccc5)c(S(=O)(=O)C(F)(F)F)c4)cc3)CC2)C1 [Navitoclax] (partner 0.5 µM)
Method in brief: (§1)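 A single step with final 0.05% Triton X-100, 1% formaldehyde and 1 ug/ml Hoechst fixed the cells and stained nuclei 5 days after treatment. Lung cancer cell lines in 1536-well plates had been treated by pin tool the day after seeding with one drug alone or a fixed anchor-drug dose plus five library-drug doses (not always all listed) in √10 steps, and nuclei were counted on 4× images. Relative viability is the ratio of nuclei in treated wells to nuclei in vehicle wells, taken as the median of duplicate plates.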

[3] = compound: C1COCCN1CC2=CC(=O)C(=CO2)OCCCCCSC3=C4C=CC(=CC4=NC=C3)C(F)(F)F [EHT 1864] + Cc1cc(Nc2cc(N3CCN(C)CC3)nc(Sc3ccc(NC(=O)C4CC4)cc3)n2)n[nH]1 [Tozasertib] (partner 0.1 µM)
Method in brief: as §1

[4] = compound: C1COCCN1CC2=CC(=O)C(=CO2)OCCCCCSC3=C4C=CC(=CC4=NC=C3)C(F)(F)F [EHT 1864] + N=C(N)NC(=N)NCCc1ccccc1 [Phenformin] (partner 250 µM)
Method in brief: as §1

Cell Line | relative viability ([1]; 0.04 µM) | relative viability ([1]; 0.1265 µM) | relative viability ([1]; 0.4 µM) | relative viability ([1]; 1.265 µM) | relative viability ([1]; 4 µM) | relative viability ([2]; first compound 0.04 µM) | relative viability ([2]; first compound 0.1265 µM) | relative viability ([2]; first compound 0.4 µM) | relative viability ([2]; first compound 1.265 µM) | relative viability ([2]; first compound 4 µM) | relative viability ([3]; first compound 0.04 µM) | relative viability ([3]; first compound 0.1265 µM) | relative viability ([3]; first compound 0.4 µM) | relative viability ([3]; first compound 1.265 µM) | relative viability ([3]; first compound 4 µM) | relative viability ([4]; first compound 0.04 µM) | relative viability ([4]; first compound 0.1265 µM) | relative viability ([4]; first compound 0.4 µM) | relative viability ([4]; first compound 1.265 µM) | relative viability ([4]; first compound 4 µM)
201T | 0.97 | 0.92 | 1.02 | 0.974 | 0.913 | 1.27 | 1.2 | 1.22 | 1.15 | 1.16 | 0.916 | 0.912 | 0.983 | 0.853 | 0.864 | 0.471 | 0.423 | 0.434 | 0.483 | 0.445
A549 | 0.88 | 0.937 | 0.921 | 0.948 | 0.883 | 1.16 | 1.2 | 0.952 | 1.18 | 0.912 | – | – | – | – | – | 0.267 | 0.14 | 0.186 | 0.0995 | 0.168
A-427 | 0.975 | 0.922 | 1.03 | 0.956 | 0.882 | 1.15 | 0.941 | 0.823 | 0.911 | 0.884 | 0.198 | 0.232 | 0.208 | 0.189 | 0.217 | 0.343 | 0.309 | 0.282 | 0.285 | 0.265
ABC-1 | 1.13 | 0.964 | 0.946 | 0.7 | 0.627 | – | – | – | – | – | 0.15 | 0.164 | 0.185 | 0.189 | 0.195 | 0.24 | 0.258 | 0.208 | 0.273 | 0.218
BEN | 0.864 | 0.812 | 1.05 | 0.871 | 0.967 | 0.0831 | 0.0599 | 0.0547 | 0.075 | 0.238 | 0.544 | 0.433 | 0.547 | 0.461 | 0.481 | 0.251 | 0.275 | 0.282 | 0.263 | 0.247
CAL-12T | 1.02 | 0.902 | 0.991 | 0.963 | 0.887 | 1.03 | 1.07 | 1.04 | 1.19 | 1.22 | 0.39 | 0.294 | 0.302 | 0.292 | 0.216 | 0.582 | 0.574 | 0.662 | 0.583 | 0.596
COR-L23 | 0.964 | 0.885 | 0.956 | 0.971 | 0.824 | 1.01 | 0.901 | 1.01 | 0.979 | 0.932 | 0.248 | 0.176 | 0.21 | 0.131 | 0.155 | 0.53 | 0.368 | 0.484 | 0.5 | 0.491
COR-L 105 | 0.893 | 0.869 | 1.05 | 0.975 | 0.945 | 0.883 | 0.783 | 0.801 | 0.707 | 0.723 | 0.343 | 0.36 | 0.367 | 0.369 | 0.693 | 0.535 | 0.427 | 0.602 | 0.536 | 0.535
Calu-6 | 1 | 0.93 | 1.01 | 0.991 | 0.955 | 0.816 | 0.7 | 0.876 | 0.757 | 0.764 | – | – | – | – | – | – | – | – | – | –
ChaGo-K-1 | 1.02 | 0.976 | 0.996 | 0.95 | 0.992 | 1.07 | 0.938 | 0.802 | – | 1.07 | 0.215 | 0.221 | 0.228 | 0.207 | 0.204 | 0.497 | 0.427 | 0.544 | 0.48 | 0.463
EBC-1 | 0.942 | 0.865 | 0.961 | 0.931 | 0.924 | 0.381 | 0.329 | 0.449 | 0.431 | 0.429 | – | – | – | – | – | – | – | – | – | –
EKVX | 0.96 | 0.931 | 0.946 | 0.962 | 0.968 | 0.937 | 0.906 | 0.88 | 0.857 | 1.03 | 0.4 | 0.371 | 0.369 | 0.351 | 0.349 | 0.23 | 0.235 | 0.223 | 0.252 | 0.245
EMC-BAC-2 | 1.02 | 0.896 | 1.04 | 0.993 | 0.971 | 1.09 | 1.09 | 1.12 | 1.13 | 1.2 | 0.304 | 0.253 | 0.314 | 0.236 | 0.26 | 0.549 | 0.48 | 0.558 | 0.502 | 0.486
EPLC-272H | 1.04 | 0.952 | 0.926 | 1.04 | 1.03 | 1.11 | 1.05 | 1.18 | 1.28 | 1.24 | 0.299 | 0.352 | 0.143 | 0.314 | 0.284 | 0.33 | 0.34 | 0.375 | 0.36 | 0.248
H3255 | 0.903 | 0.82 | 0.963 | 0.946 | 1.01 | 0.561 | 0.506 | 0.457 | 0.441 | 0.448 | 0.576 | 0.603 | 0.633 | 0.677 | 0.527 | 0.383 | 0.394 | 0.424 | 0.36 | 0.399
HARA | 0.962 | 0.782 | 1.1 | 1.14 | 1.05 | 1.11 | 1.15 | 1.1 | 1.19 | 0.996 | 0.118 | 0.127 | 0.132 | 0.098 | 0.117 | 0.396 | 0.483 | 0.466 | 0.351 | 0.416
HCC-15 | 1.03 | – | 0.976 | 0.941 | 1 | 0.732 | 0.576 | 0.682 | 0.649 | 0.736 | 0.377 | – | 0.398 | 0.319 | 0.247 | 0.491 | – | 0.461 | 0.383 | 0.52

— the supplement of paper PMC10307832
